In US9453026B2, “ACC inhibitors and uses thereof” (Gilead Apollo, Inc., priority 2011, dated 2016):

biological target: ACC2 (Homo sapiens, UniProt O00763); test: In vitro ACC2 inhibition assay (ADP-Glo); type: biochemical; conditions: read-out: ACC2
Procedure: An exemplary procedure for the in vitro ACC inhibition assay, which can be used to determine the inhibitory action of compounds of the invention toward either ACC1 or ACC2, follows. The ADP-Glo™ Kinase Assay kit from Promega was used. The ADP-Glo™ Kinase Assay is a luminescent ADP detection assay to measure enzymatic activity by quantifying the amount of ADP produced during an enzyme reaction. The assay is performed in two steps; first, after the enzyme reaction, an equal volume of ADP-Glo™ Reagent is added to terminate the reaction and deplete the remaining ATP. Second, the Kinase Detection Reagent is added to simultaneously convert ADP to ATP and allow the newly synthesized ATP to be measured using a luciferase/luciferin reaction. Luminescence can be correlated to ADP concentrations by using an ATP-to-ADP conversion curve. The detailed procedure is as follows. 50 μL of the compound being tested (600 uM in DMSO) was added to a 384-well dilution plate. The compound was diluted 1:3 in succession in DMSO for each row for 11 wells. 0.5 μL ACC2 working solution was added to 384-well white Optiplate assay plate. 0.5 μL diluted compound solution in each column from step 2 to assay plate, each row containing 2 replicates. […] The plates were incubated at room temperature for 15 minutes. 5 μL substrate working solution was added to each well to initiate reaction. […] Plates were incubated at room temperature for 60 minutes. 10 μL ADP glo reagent was added. Plates were incubated at room temperature for 40 minutes. 20 μL kinase detection reagent was added.
Data for each concentration, as well as the positive and negative controls were averaged, and the standard deviation calculated. Percent inhibition was calculated by the formula: 100× (average negative control−compound)/(average negative control−average positive control). The IC50 for each compound was calculated by fitting the data with a non-linear regression equation: Y=Bottom+(Top-Bottom)/(1+10^((Log IC50−X)*HillSlope)), where X is the log of compound concentration and Y is percent inhibition.
The compound numbers correspond to the compound numbers in Table 1.

Sequence of ACC2 (O00763 whole entry, species assumed): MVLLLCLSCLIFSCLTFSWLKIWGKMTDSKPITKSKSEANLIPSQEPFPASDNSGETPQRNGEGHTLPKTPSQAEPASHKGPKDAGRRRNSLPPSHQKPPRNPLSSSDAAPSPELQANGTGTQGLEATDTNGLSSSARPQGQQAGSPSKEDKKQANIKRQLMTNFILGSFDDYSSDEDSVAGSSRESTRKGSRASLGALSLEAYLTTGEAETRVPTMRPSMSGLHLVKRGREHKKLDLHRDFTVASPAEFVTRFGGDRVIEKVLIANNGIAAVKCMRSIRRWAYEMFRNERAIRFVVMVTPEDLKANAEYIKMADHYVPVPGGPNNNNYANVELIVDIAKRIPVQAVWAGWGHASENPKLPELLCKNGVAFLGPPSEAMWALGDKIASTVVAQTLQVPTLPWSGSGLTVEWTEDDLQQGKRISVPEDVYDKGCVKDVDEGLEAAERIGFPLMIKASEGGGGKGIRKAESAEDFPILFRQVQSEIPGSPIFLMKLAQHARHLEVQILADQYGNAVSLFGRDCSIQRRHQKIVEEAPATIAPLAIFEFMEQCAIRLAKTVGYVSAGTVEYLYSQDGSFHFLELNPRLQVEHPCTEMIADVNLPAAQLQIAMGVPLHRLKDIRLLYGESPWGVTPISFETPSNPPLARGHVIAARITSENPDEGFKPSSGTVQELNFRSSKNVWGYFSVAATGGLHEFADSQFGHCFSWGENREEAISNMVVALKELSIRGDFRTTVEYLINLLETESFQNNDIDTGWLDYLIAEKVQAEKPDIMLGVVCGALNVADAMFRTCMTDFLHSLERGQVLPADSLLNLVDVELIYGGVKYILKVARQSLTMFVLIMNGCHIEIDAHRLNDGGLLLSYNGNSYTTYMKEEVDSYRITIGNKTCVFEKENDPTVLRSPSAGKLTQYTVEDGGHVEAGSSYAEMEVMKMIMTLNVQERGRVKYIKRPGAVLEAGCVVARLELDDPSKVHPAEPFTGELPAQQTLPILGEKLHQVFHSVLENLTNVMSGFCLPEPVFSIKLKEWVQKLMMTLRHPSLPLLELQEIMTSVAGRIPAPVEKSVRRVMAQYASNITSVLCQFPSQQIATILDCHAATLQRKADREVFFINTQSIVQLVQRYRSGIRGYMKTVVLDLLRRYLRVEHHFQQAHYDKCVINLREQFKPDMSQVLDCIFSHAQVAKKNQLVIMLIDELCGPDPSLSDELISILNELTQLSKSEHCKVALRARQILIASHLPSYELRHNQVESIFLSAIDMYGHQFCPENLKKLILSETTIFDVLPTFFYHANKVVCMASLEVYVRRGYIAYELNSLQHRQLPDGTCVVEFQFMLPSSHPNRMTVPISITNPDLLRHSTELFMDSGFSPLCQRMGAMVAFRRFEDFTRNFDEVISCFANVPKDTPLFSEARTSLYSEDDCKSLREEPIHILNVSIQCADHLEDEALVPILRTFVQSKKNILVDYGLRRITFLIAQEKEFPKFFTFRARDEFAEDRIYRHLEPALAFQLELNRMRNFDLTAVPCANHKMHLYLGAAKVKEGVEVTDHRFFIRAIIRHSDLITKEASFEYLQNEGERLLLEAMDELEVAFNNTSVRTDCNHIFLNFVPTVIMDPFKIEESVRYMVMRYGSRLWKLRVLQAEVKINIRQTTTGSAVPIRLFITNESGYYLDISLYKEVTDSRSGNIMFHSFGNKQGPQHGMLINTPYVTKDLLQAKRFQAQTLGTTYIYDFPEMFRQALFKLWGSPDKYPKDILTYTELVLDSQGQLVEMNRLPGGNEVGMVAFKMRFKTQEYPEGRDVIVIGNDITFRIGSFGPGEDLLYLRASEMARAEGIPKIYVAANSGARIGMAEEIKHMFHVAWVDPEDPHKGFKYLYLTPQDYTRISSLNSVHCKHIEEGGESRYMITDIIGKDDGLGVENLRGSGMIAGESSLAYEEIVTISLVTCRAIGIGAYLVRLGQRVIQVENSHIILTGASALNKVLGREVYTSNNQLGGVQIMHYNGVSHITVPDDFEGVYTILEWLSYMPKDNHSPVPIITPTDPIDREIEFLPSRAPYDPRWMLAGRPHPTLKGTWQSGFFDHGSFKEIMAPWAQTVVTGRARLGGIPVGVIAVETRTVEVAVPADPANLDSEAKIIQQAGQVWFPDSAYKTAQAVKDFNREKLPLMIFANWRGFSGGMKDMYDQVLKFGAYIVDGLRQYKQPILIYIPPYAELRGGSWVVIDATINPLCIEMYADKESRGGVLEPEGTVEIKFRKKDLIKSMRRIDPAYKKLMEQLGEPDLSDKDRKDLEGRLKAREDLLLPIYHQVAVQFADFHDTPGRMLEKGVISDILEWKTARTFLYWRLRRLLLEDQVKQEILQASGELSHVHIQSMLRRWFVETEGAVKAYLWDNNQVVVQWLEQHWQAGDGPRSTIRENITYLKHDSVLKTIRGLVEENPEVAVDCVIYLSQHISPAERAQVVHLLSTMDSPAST

SMILES	IC50 [µM]
CCOC(=O)c1sc2c(c1C)c(=O)n(C(C)C(=O)O)c(=O)n2CCc1ccccc1 (stereo not shown) [I-56, 2-[6-(ethoxycarbonyl)-5-methyl-2,4-dioxo-1-(2-phenylethyl)-1H,2H,3H,4H-thieno[2,3-d]pyrimidin-3-yl]propanoic acid]	< 5
Cc1c(C(=O)NCCO)sc2c1c(=O)n(CCO)c(=O)n2CCc1ccccc1 [I-57]	> 50
O=c1c2ccsc2n(CCc2ccccc2)c(=O)n1CCO [I-59]	> 50
Cc1csc2c1c(=O)n(CC(=O)O)c(=O)n2CCc1ccccc1 [I-63]	20 to 50
CCOC(=O)c1sc2c(c1C)c(=O)n(CCO)c(=O)n2Cc1ccc2ccn(C)c2c1 [I-64]	> 50
[2H]c1ccc(CCn2c(=O)n(CC(=O)O)c(=O)c3c(C)c(C(=O)OCC)sc32)cc1 [I-66, 2-(1-(4-deuterophenethyl)-6-(ethoxycarbonyl)-5-methyl-2,4-doxo-1,2-dihydrothieno[2,3-d]pyrimidin-3(4H)-yl)acetic acid]	< 5
CCOC(=O)c1sc2c(c1C)c(=O)n(CC(=O)O)c(=O)n2CC(OC)c1ccccc1 (stereo not shown) [I-67, 2-[6-(ethoxycarbonyl)-1-(2-methoxy-2-phenylethyl)-5-methyl-2,4-dioxo-1H,2H,3H,4H-thieno[2,3-d]pyrimidin-3-yl]acetic acid]	< 5
Cc1c(C(N)=O)sc2c1c(=O)n(CC(=O)O)c(=O)n2CCc1ccccc1 [I-71, 2-[6-carbamoyl-5-methyl-2,4-dioxo-1-(2-phenylethyl)-1H,2H,3H,4H-thieno[2,3-d]pyrimidin-3-yl]acetic acid]	> 50
CCOC(=O)c1sc2c(c1C)c(=O)n(CC(=O)O)c(=O)n2CC(=O)c1ccccc1 [I-73, 2-[6-(ethoxycarbonyl)-5-methyl-2,4-dioxo-1-(2-oxo-2-phenylethyl)-1H,2H,3H,4H-thieno[2,3-d]pyrimidin-3-yl]acetic acid]	20 to 50
COCc1sc2c(c1C)c(=O)n(CC(=O)O)c(=O)n2CCc1ccccc1 [I-75, 2-[6-(methoxymethyl)-5-methyl-2,4-dioxo-1-(2-phenylethyl)-1H,2H,3H,4H-thieno[2,3-d]pyrimidin-3-yl]acetic acid]	5 to 20
CCOC(=O)c1sc2c(c1C)c(=O)n([C@H](C)C(=O)O)c(=O)n2CCc1ccccc1 [I-76, (2R)-2-[6-(ethoxycarbonyl)-5-methyl-2,4-dioxo-1-(2-phenylethyl)-1H,2H,3H,4H-thieno[2,3-d]pyrimidin-3-yl]propanoic acid]	< 5
CCOC(=O)c1sc2c(c1C)c(=O)n(CC(=O)O)c(=O)n2C[C@@H](O)c1ccccc1 [I-77, 2-[6-(ethoxycarbonyl)-1-[(2S)-2-hydroxy-2-phenylethyl]-5-methyl-2,4-dioxo-1H,2H,3H,4H-thieno[2,3-d]pyrimidin-3-yl]acetic acid]	5 to 20
CCOC(=O)c1sc2c(c1C)c(=O)n(CC(C)(C)O)c(=O)n2CCc1ccccc1 [I-79, ethyl 3-(2-hydroxy-2-methylpropyl)-5-methyl-2,4-dioxo-1-(2-phenylethyl)-1H,2H,3H,4H-thieno[2,3-d]pyrimidine-6-carboxylate]	5 to 20
CCOC(=O)c1sc2c(c1C)c(=O)n([C@@H](C)C(=O)O)c(=O)n2CCc1ccccc1 [I-80, (2S)-2-[6-(ethoxycarbonyl)-5-methyl-2,4-dioxo-1-(2-phenylethyl)-1H,2H,3H,4H-thieno[2,3-d]pyrimidin-3-yl]propanoic acid]	< 5
Cc1c(C(=O)OCCO)sc2c1c(=O)n(CC(=O)O)c(=O)n2CCc1ccccc1 [I-83, 2-[6-[(2-hydroxyethoxy)carbonyl]-5-methyl-2,4-dioxo-1-(2-phenylethyl)-1H,2H,3H,4H-thieno[2,3-d]pyrimidin-3-yl]acetic acid]	< 5
CCOC(=O)c1sc2c(c1C)c(=O)n(CC(=O)O)c(=O)n2CCc1nc2ccccc2s1 [I-84, 2-[1-[2-(1,3-benzothiazol-2-yl)ethyl]-6-(ethoxycarbonyl)-5-methyl-2,4-dioxo-1H,2H,3H,4H-thieno[2,3-d]pyrimidin-3-yl]acetic acid]	> 50
CCOC(=O)c1sc2c(c1C)c(=O)n(CC(=O)O)c(=O)n2CC(OC(C)=O)c1ccccc1 (stereo not shown) [I-85, 2-[1-[2-(acetyloxy)-2-phenylethyl]-6-(ethoxycarbonyl)-5-methyl-2,4-dioxo-1H,2H,3H,4H-thieno[2,3-d]pyrimidin-3-yl]acetic acid]	< 5
Cc1c(C(=O)OC2CCC2)sc2c1c(=O)n(CC(=O)O)c(=O)n2CCc1ccccc1 [I-86, 2-[6-(cyclobutoxycarbonyl)-5-methyl-2,4-dioxo-1-(2-phenylethyl)-1H,2H,3H,4H-thieno[2,3-d]pyrimidin-3-yl]acetic acid]	5 to 20
Cc1c(C2=NCCO2)sc2c1c(=O)n(CC(=O)O)c(=O)n2CCc1ccccc1 [I-87, 2-[6-(4,5-dihydro-1,3-oxazol-2-yl)-5-methyl-2,4-dioxo-1-(2-phenylethyl)-1H,2H,3H,4H-thieno[2,3-d]pyrimidin-3-yl]acetic acid]	< 5
CCOC(=O)c1sc2c(c1C)c(=O)n(CC(=O)O)c(=O)n2Cc1cc2ccccc2[nH]1 [I-88, 2-[6-(ethoxycarbonyl)-1-(1H-indol-2-ylmethyl)-5-methyl-2,4-dioxo-1H,2H,3H,4H-thieno[2,3-d]pyrimidin-3-yl]acetic acid]	> 50
CCOC(=O)c1sc2c(c1C)c(=O)n(CC(=O)O)c(=O)n2Cc1ccc2[nH]ccc2c1 [I-90, 2-[6-(ethoxycarbonyl)-1-(1H-indol-5-ylmethyl)-5-methyl-2,4-dioxo-1H,2H,3H,4H-thieno[2,3-d]pyrimidin-3-yl]acetic acid]	20 to 50
CCOC(=O)c1cc2c(=O)n(CC(=O)O)c(=O)n(CCc3ccccc3)c2s1 [I-91, 2-[6-(ethoxycarbonyl)-2,4-dioxo-1-(2-phenylethyl)-1H,2H,3H,4H-thieno[2,3-d]pyrimidin-3-yl]acetic acid]	5 to 20
Cc1c(-c2ncco2)sc2c1c(=O)n(CC(=O)O)c(=O)n2CCc1ccccc1 [I-92, 2-[5-methyl-6-(1,3-oxazol-2-yl)-2,4-dioxo-1-(2-phenylethyl)-1H,2H,3H,4H-thieno[2,3-d]pyrimidin-3-yl]acetic acid]	< 5

Now from value to compound:

IC50 [µM]	SMILES
5 to 20	CCOC(=O)c1sc2c(c1C)c(=O)n(CC(=O)O)c(=O)n2CCc1ccccc1Br [I-54, 2-[1-[2-(2-bromophenyl)ethyl]-6-(ethoxycarbonyl)-5-methyl-2,4-dioxo-1H,2H,3H,4H-thieno[2,3-d]pyrimidin-3-yl]acetic acid]
> 50	Cc1csc2c1c(=O)n(CCO)c(=O)n2CCc1ccccc1 [I-58]
5 to 20	CCOC(=O)c1sc2c(c1C)c(=O)n(CC(C)O)c(=O)n2CCc1ccccc1 (stereo not shown) [I-62, ethyl 3-(2-hydroxypropyl)-5-methyl-2,4-dioxo-1-(2-phenylethyl)-1H,2H,3H,4H-thieno[2,3-d]pyrimidine-6-carboxylate]
> 50	O=C(O)Cn1c(=O)c2ccsc2n(CCc2ccccc2)c1=O [I-65, 2-[2,4-dioxo-1-(2-phenylethyl)-1H,2H,3H,4H-thieno[2,3-d]pyrimidin-3-yl]acetic acid]
5 to 20	CCCOC(=O)c1sc2c(c1C)c(=O)n(CC(=O)O)c(=O)n2CCc1ccccc1 [I-68, 2-[5-methyl-2,4-dioxo-1-(2-phenylethyl)-6-(propoxycarbonyl)-1H,2H,3H,4H-thieno[2,3-d]pyrimidin-3-yl]acetic acid]
< 5	CCOC(=O)c1sc2c(c1C)c(=O)n(C(C)C(N)=O)c(=O)n2CCc1ccccc1 (stereo not shown) [I-69, ethyl 3-(1-carbamoylethyl)-5-methyl-2,4-dioxo-1-(2-phenylethyl)-1H,2H,3H,4H-thieno[2,3-d]pyrimidine-6-carboxylate]
> 50	CCOC(=O)c1sc2c(c1C)c(=O)n(CS(C)(=O)=O)c(=O)n2CCc1ccccc1 [I-72]
5 to 20	CCOC(=O)c1sc2c(c1C)c(=O)n(CC(=O)O)c(=O)n2Cc1ccc2ccn(C)c2c1 [I-74, 2-[6-(ethoxycarbonyl)-5-methyl-1-[(1-methyl-1H-indol-6-yl)methyl]-2,4-dioxo-1H,2H,3H,4H-thieno[2,3-d]pyrimidin-3-yl]acetic acid]
< 5	CCOC(=O)c1sc2c(c1C)c(=O)n(CC(=O)O)c(=O)n2C[C@H](O)c1ccccc1 [I-78, 2-[6-(ethoxycarbonyl)-1-[(2R)-2-hydroxy-2-phenylethyl]-5-methyl-2,4-dioxo-1H,2H,3H,4H-thieno[2,3-d]pyrimidin-3-yl]acetic acid]
5 to 20	CCOC(=O)c1sc2c(c1C)c(=O)n(C[C@@H](C)O)c(=O)n2CCc1ccccc1 [I-81, ethyl 3-[(2R)-2-hydroxypropyl]-5-methyl-2,4-dioxo-1-(2-phenylethyl)-1H,2H,3H,4H-thieno[2,3-d]pyrimidine-6-carboxylate]
5 to 20	CCOC(=O)c1sc2c(c1C)c(=O)n(C[C@H](C)O)c(=O)n2CCc1ccccc1 [I-82, ethyl 3-[(2S)-2-hydroxypropyl]-5-methyl-2,4-dioxo-1-(2-phenylethyl)-1H,2H,3H,4H-thieno[2,3-d]pyrimidine-6-carboxylate]
